# Experimental data taken from patent EP0189679A1, “Novel crystalline form of 1-benzhydryl-4-allylpiperazine dihydrochloride and method for the production thereof” (SO "PHARMACHIM", priority 1984, dated 1986).
# Key:
# [1] = Solubility profile / rate of dissolution of pulverous specimens in water; assay type: physicochemical; conditions: 25°C
# Method: The respective solubilities of the three crystalline modifications have also been studied. The rate of dissolution of pulverous specimens in water was determined in the following manner: a finely ground powder formed from the crystalline form under study in a quantity twice as great as necessary to produce a saturated solution in water is placed in a receptacle containing 100 ml of distilled water. The suspension is stirred using a magnetic agitator (600 r.p.m.) at a temperature of 25°C. At predetermined time intervals, samples are taken and, after filtering through a Milipor filter ([…]) they are diluted to the necessary volume for performing a quantitative determination. For this purpose, an absorption maximum at 250 nm is used.
# [2] = Initial rate of dissolution of pressed discs in 0.1 N hydrochloric acid; assay type: physicochemical; conditions: pressed disc 200 mg substance + 100 mg polyvinylchloride, 100 ml 0.1 N hydrochloric acid, 25°C, linear part between first and fifth minutes
# Method: In Table 4 which follows, there are compared the rates of dissolution of the. three crystalline forms. Investigations were carried out with pressed discs made up of 200 mg of the test substance and 100 mg of polyvinylchloride pressed at a pressure of 10 tonnes for 5 minutes in a plane around the disc using a pill making matrix with a diameter of 13 mm. The discs thus obtained are immersed by means of a special holding device in 100 ml of 0.1 N hydrochloric acid solution. Stirring was carried out by means of an electromagnetic agitator. The testing temperature employed was 25°C. The initial rates of dissolution are determined from the dissolution curves for the pressed discs, using the linear part between the first and fifth minutes. Comparison of data for the initial rate of dissolution of the three crystalline forms indicate that crystal form "A" has an initial rate of dissolution which is 3 to 4 times greater than that of the other forms.
# [3] = Hygroscopicity study of ground samples in a humidity chamber; assay type: physicochemical; conditions: 90% humidity, 25°C, period of 30 days
# Method: Hygroscopicity studies have been carried out by placing samples of the three crystalline forms with the same particle size resulting from grinding of samples of the three crystalline forms in a vibratory mill. The studies take place in a chamber with 90% humidity and at a temperature of 25°C. At intervals, samples are taken in order to determine their water content and their crystalline structure by means of the methods described hereinabove. […] They are not hygroscopic and are physically stable under the test conditions..
# [4] = Stability study of the solid forms under ambient storage conditions in light-permeable glass jars; assay type: physicochemical; conditions: ambient storage in glass jars permitting passage of light; over one year and after three years
# Text: More exhaustive stability studies have been performed under ambient storage conditions in glass jars which permit the passage of light therethrough. […] The three crystalline forms are chemically and physically stable under normal storage conditions.
# [5] = Stability in aqueous solution (injectible compositions) of different crystalline forms; assay type: physicochemical; conditions: dihydrochloride; for Content of active substance in the solution in %, In storing 1 year: stored 1 year; for Content of active substance in the solution in %, In storing 3 years: stored 3 years
# Text: Table 3 indicates comparative data concerning the stability of injectible forms of pharmaceutical compositions containing either crystalline form "A" according to the present invention and form "B" (aligerone prepared according to the method described in the aforementioned references to Zikolova and Ninov).
# [6] = test system: blood vessels of the brain; conditions: from Zikolova and Ninov and Drugs of the Future 1980, 5(1); cited from earlier work
# [7] = powder in 100 ml distilled water, 600 r.p.m.
smiles,measurement,setting,value
"C=CCN1CCN(C(c2ccccc2)c2ccccc2)CC1.Cl.Cl.O.O [Crystalline hydrate, 1-benzhydryl-4-allylpiperazine dihydrochloride dihydrate, reference compound]",time until solubility reaches a constant value,[1]; [7],60 min
same,Initial rate of dissolving,[2],0.333 mg/mL/min
"C=CCN1CCN(C(c2ccccc2)c2ccccc2)CC1.Cl.Cl [Form ""A"", 1-benzhydryl-4-allyl-piperazine dihydrochloride]",hygroscopicity (water absorption),[3],non-hygroscopic
same,chemical and physical stability on storage,[4],stable on storage under normal conditions
same,"Content of active substance in the solution in %, Initial concentration",[5]; listed as A,1.251%
same,"Content of active substance in the solution in %, In storing 1 year",[5]; listed as A,1.250%
same,"Content of active substance in the solution in %, In storing 3 years",[5]; listed as A,1.198%
same,time to attain maximum solubility,[1]; [7],≤ 2 min
same,time until solubility reaches a constant value,"[1]; powder in 100 ml distilled water, 600 r.p.m., listed as form ""A"", dihydrochloride",10 min
same,solubility in comparison with the other crystalline forms,"[1]; water, compared with anhydrous form ""B"" and the crystalline hydrate",higher equilibrium solubility
"C=CCN1CCN(C(c2ccccc2)c2ccccc2)CC1.Cl.Cl [Form ""B"", 1-benzhydryl-4-allylpiperazine dihydrochloride]","Content of active substance in the solution in %, Initial concentration",[5]; listed as B,1.255%
same,"Content of active substance in the solution in %, In storing 1 year",[5]; listed as B,1.105%
same,"Content of active substance in the solution in %, In storing 3 years",[5]; listed as B,0.925%
same,time until solubility reaches a constant value,"[1]; powder in 100 ml distilled water, 600 r.p.m., listed as form ""B"", dihydrochloride",60 min
same,Initial rate of dissolving,"[2]; listed as B, dihydrochloride",0.467 mg/mL/min
"C=CCN1CCN(C(c2ccccc2)c2ccccc2)CC1.Cl.Cl [aligerone, 1-benzhydryl-4-allyl-piperazine dihydrochloride]",effect on blood circulation and oxygen concentration of the brain compared with cinnarizine,[6],stronger than that of cinnarizine
